PubChem BioAssay AID330 (DTP/NCI, 2004)
“And” between values parts separate entries of the source, which are not always exact repeats. Equal entries are not always repeated. Inconclusive results and toxic doses are left out.

System: P388 leukemia ip, CD2F1 mice, survival T/C
Experiment: NCI In Vivo Anticancer Drug Screen. Data for tumor model P388 Leukemia (intraperitoneal) in CD2F1 (CDF1) mice
Details: endpoint: median survival time, higher = longer survival
How it was run: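 Mice carrying the transplanted tumor received test compound or vehicle. Survival was recorded in each group, and the value is the treated-group measurement divided by that of the vehicle-treated control group.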

[1] = dose: 100.0 mg/kg/injection, schedule: Q04DX002 (ip), vehicle: saline with Tween-80
[2] = dose: 200.0 mg/kg/injection, schedule: Q04DX002 (ip), vehicle: saline with Tween-80
[3] = dose: 400.0 mg/kg/injection, schedule: Q04DX002 (ip), vehicle: saline with Tween-80
[4] = dose: 50.0 mg/kg/injection, schedule: Q01DX005 (ip), vehicle: saline
[5] = dose: 100.0 mg/kg/injection, schedule: Q01DX005 (ip), vehicle: saline
[6] = dose: 200.0 mg/kg/injection, schedule: Q01DX005 (ip), vehicle: saline
[7] = dose: 50.0 mg/kg/injection, schedule: Q01DX005 (ip), vehicle: saline with Tween-80
[8] = dose: 100.0 mg/kg/injection, schedule: Q01DX005 (ip), vehicle: saline with Tween-80

NC(CSSCC(N)C(=O)O)C(=O)O (stereo not given)
T/C (dose: 50.0 mg/kg/injection, schedule: Q01DX009 (ip), vehicle: Klucel (hydroxypropylcellulose) (HPC)): 105 % of control | T/C (dose: 100.0 mg/kg/injection, schedule: Q01DX009 (ip), vehicle: Klucel (hydroxypropylcellulose) (HPC)): 105 % of control | T/C (dose: 200.0 mg/kg/injection, schedule: Q01DX009 (ip), vehicle: Klucel (hydroxypropylcellulose) (HPC)): 106 % of control

O=S1(N2CC2)=NP(N2CC2)(N2CC2)=NP(N2CC2)(N2CC2)=N1 (stereo not given)
T/C (dose: 100.0 mg/kg/injection, schedule: Q04DX002 (ip), vehicle: saline): 168 % of control | T/C (dose: 150.0 mg/kg/injection, schedule: Q04DX002 (ip), vehicle: saline): 198 % of control

CCCNC(=O)CCC(NS(=O)(=O)c1ccccc1)C(=O)O (stereo not given)
T/C (dose: 100.0 mg/kg/injection, schedule: Q04DX002 (ip), vehicle: Klucel (hydroxypropylcellulose) (HPC)): 91 % of control | T/C (dose: 200.0 mg/kg/injection, schedule: Q04DX002 (ip), vehicle: Klucel (hydroxypropylcellulose) (HPC)): 102 % of control | T/C (dose: 400.0 mg/kg/injection, schedule: Q04DX002 (ip), vehicle: Klucel (hydroxypropylcellulose) (HPC)): 96 % of control

CCOC(=O)N/N=C/c1ccc[nH]1
T/C (dose: 1.8 mg/kg/injection, schedule: Q01DX005 (ip), vehicle: saline with Tween-80): 100 % of control | T/C (dose: 3.75 mg/kg/injection, schedule: Q01DX005 (ip), vehicle: saline with Tween-80): 100 % of control | T/C (dose: 7.5 mg/kg/injection, schedule: Q01DX005 (ip), vehicle: saline with Tween-80): 101 % of control and 103 % of control

CC(=O)Oc1cc(OC(C)=O)c2c(c1)C(=O)c1cc(C)cc(OC(C)=O)c1C2=O
T/C [1]: 90 % of control and 96 % of control | T/C [2]: 90 % of control | T/C [3]: 90 % of control

Nc1[nH][nH]c(=O)c1N
T/C [4]: 101 % of control | T/C [5]: 101 % of control | T/C [6]: 107 % of control

CC(=O)NS(=O)(=O)c1ccc(N=Nc2c(C)nn(C(=O)c3cccnc3)c2-c2ccccc2)cc1
T/C [7]: 87 % of control | T/C [8]: 89 % of control

CCOC(=O)NN(C(=O)OCC)C1CCN=C1C(=O)OC (stereo not given)
T/C [4]: 98 % of control | T/C [5]: 88 % of control | T/C [6]: 98 % of control

NS(=O)(=O)c1cc(C(=O)O)cc(NC(=O)CCCCl)c1Oc1ccccc1
T/C (dose: 50.0 mg/kg/injection, schedule: Q01DX009 (ip), vehicle: saline with Tween-80): 103 % of control and 123 % of control | T/C (dose: 100.0 mg/kg/injection, schedule: Q01DX009 (ip), vehicle: saline with Tween-80): 100 % of control and 96 % of control | T/C (dose: 200.0 mg/kg/injection, schedule: Q01DX009 (ip), vehicle: saline with Tween-80): 104 % of control and 123 % of control

CCN(CC)c1ccc2cc(C(=O)NC(=O)Oc3ccccc3)c(=O)oc2c1
T/C [1]: 92 % of control | T/C [2]: 89 % of control | T/C [3]: 87 % of control

C=CC(C)(CCC=C(C)C)N=C=O (stereo not given)
T/C (dose: 12.5 mg/kg/injection, schedule: Q01DX009 (ip), vehicle: distilled water + Tween-80): 100 % of control | T/C (dose: 25.0 mg/kg/injection, schedule: Q01DX009 (ip), vehicle: distilled water + Tween-80): 91 % of control | T/C (dose: 50.0 mg/kg/injection, schedule: Q01DX009 (ip), vehicle: distilled water + Tween-80): 105 % of control | T/C (dose: 100.0 mg/kg/injection, schedule: Q01DX009 (ip), vehicle: distilled water + Tween-80): 114 % of control | T/C (dose: 200.0 mg/kg/injection, schedule: Q01DX009 (ip), vehicle: distilled water + Tween-80): 108 % of control

CC(C)(CBr)COP1(=O)NCC(C)(C)CO1 (stereo not given)
T/C (dose: 50.0 mg/kg/injection, schedule: Q01DX005 (ip), vehicle: Klucel (hydroxypropylcellulose) (HPC)): 106 % of control | T/C (dose: 100.0 mg/kg/injection, schedule: Q01DX005 (ip), vehicle: Klucel (hydroxypropylcellulose) (HPC)): 105 % of control | T/C (dose: 200.0 mg/kg/injection, schedule: Q01DX005 (ip), vehicle: Klucel (hydroxypropylcellulose) (HPC)): 106 % of control

ON(CCc1ccncc1)CCc1ccncc1
T/C [7]: 100 % of control | T/C [8]: 98 % of control | T/C (dose: 200.0 mg/kg/injection, schedule: Q01DX005 (ip), vehicle: saline with Tween-80): 100 % of control

O=C1CC2(C(=O)N1CN1CCN(c3ccc(F)cc3)CC1)c1ccccc1-c1ccccc12 (tested in a mixture with another compound)
T/C (dose: 100.0 mg/kg/injection, schedule: Q04DX003 (ip), vehicle: saline with Tween-80): 90 % of control
